IC50 data for 34 molecules are collected here from US20220226299A1 (NIPPON CHEMIPHAR CO., LTD., priority 2019, published 2022).

The experiment addresses T1, human Cav3.2 channels (Homo sapiens, UniProt O95180).
T1 construct: human Cav3.2 channel ORF (Open Reading Frame) gene; expressed in transfected cells; host or cells: HEK293 cells (ATCC No. CRL-1573), pcDNA3.1(+) plasmid
Kind of experiment: T-type calcium blocking action: intracellular calcium (Fluo-4 AM fluorescence) in HEK293 cells steadily expressing human Cav3.2 channels. Format: cell-based. The settings on record: HEK293 cells expressing human Cav3.2; KCl-stimulated calcium influx, Fluo-4 fluorescence; Tables 1 to 3. In outline:
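Fluo-4 AM-loaded stable HEK293 cells were preincubated 15 min at RT with compound (0.1% DMSO final) in choline-based buffer (pH 7.3). Gramicidin was added, then KCl-induced calcium influx was read at 485/510 nm for 10 s. Percent block came from peak rise over baseline, and IC50 from log-concentration plots.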
For orientation: Calcium assays in cells follow changes in intracellular calcium, usually with a dye or a luminescent sensor.

T1 sequence (O95180 whole entry): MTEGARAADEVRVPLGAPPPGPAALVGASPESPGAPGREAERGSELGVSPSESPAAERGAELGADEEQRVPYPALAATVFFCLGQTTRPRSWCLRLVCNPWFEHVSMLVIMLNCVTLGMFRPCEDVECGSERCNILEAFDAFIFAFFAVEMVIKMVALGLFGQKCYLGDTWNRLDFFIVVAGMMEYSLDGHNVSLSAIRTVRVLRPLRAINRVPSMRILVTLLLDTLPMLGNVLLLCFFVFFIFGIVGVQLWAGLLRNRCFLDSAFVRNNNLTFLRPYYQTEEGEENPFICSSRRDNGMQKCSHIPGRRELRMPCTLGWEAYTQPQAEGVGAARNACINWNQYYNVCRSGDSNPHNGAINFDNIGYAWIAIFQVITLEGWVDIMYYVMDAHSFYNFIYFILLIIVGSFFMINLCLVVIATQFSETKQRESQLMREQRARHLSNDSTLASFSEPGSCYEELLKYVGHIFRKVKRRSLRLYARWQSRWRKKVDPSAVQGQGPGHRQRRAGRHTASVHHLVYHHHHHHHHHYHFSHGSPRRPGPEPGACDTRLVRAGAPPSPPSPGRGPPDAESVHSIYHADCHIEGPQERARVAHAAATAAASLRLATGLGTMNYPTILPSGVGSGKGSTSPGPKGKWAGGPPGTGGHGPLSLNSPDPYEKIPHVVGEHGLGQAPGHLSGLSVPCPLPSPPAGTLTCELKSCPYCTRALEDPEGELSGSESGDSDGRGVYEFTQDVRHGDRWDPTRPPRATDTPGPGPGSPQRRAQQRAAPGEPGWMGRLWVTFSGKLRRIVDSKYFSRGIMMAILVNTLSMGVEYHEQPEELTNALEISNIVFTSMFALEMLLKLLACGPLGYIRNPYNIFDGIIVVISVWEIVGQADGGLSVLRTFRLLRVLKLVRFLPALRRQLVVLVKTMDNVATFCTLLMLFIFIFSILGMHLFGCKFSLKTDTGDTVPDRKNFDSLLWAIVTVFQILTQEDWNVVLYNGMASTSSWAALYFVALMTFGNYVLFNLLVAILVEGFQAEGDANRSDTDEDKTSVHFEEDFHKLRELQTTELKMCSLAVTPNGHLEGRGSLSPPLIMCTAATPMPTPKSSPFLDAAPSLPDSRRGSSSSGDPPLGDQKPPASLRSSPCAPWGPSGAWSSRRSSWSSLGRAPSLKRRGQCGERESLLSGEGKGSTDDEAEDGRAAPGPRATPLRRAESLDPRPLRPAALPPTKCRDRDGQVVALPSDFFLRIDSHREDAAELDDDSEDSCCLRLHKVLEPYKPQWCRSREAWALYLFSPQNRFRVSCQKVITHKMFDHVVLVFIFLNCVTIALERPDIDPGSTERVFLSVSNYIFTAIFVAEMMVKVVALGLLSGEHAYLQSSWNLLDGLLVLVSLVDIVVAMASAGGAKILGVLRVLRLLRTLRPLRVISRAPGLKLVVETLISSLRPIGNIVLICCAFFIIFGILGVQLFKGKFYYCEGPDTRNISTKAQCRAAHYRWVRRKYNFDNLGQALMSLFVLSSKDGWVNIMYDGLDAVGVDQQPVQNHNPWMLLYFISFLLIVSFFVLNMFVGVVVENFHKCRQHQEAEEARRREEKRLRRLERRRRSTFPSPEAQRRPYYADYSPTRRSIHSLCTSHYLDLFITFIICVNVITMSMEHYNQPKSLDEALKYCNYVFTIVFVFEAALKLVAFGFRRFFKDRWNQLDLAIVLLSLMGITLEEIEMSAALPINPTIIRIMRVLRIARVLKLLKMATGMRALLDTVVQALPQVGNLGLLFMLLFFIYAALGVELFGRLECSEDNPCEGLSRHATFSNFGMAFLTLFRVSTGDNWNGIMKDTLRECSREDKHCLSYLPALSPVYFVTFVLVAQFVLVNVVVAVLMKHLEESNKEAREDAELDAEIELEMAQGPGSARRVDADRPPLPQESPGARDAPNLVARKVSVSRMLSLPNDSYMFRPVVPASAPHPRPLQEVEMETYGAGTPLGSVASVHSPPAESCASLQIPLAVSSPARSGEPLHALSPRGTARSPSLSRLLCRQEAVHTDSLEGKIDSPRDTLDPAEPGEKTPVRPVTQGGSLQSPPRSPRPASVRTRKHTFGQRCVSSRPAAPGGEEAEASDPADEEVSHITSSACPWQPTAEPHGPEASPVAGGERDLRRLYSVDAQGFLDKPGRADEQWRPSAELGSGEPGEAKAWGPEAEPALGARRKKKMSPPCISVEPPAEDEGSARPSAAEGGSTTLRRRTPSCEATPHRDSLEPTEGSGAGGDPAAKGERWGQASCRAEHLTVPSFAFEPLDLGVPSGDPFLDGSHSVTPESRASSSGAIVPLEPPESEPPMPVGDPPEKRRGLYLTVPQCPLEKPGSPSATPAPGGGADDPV

By IC50 is commonly meant the concentration that inhibits the measured activity by half. For the molecule `O=C(Cc1ccc(N2CCCCC2=O)cc1)N[C@@H]1CCN(c2cncc(C(F)(F)F)c2)C1` [Example 96, (R)-2-(4-(2-oxopiperidin-1-yl)phenyl)-N-(1-(5-(trifluoromethyl)pyridin-3-yl)pyrrolidin-3-yl)acetamide], the IC50 was 410 nM.

For the molecule `O=C(Cc1nc2ccc(Cl)cc2o1)N[C@@H]1CCN(c2cncc(C(F)(F)F)c2)C1` [Example 97, (R)-2-(6-chlorobenzo[d]oxazol-2-yl)-N-(1-(5-(trifluoromethyl)pyridin-3-yl)pyrrolidin-3-yl)acetamide], the IC50 was determined as 250 nM.

Regarding `O=C(Cc1nc2ccccc2o1)N[C@@H]1CCN(c2cncc(C(F)(F)F)c2)C1` [Example 98, (R)-2-(benzo[d]oxazol-2-yl)-N-(1-(5-(trifluoromethyl)pyridin-3-yl)pyrrolidin-3-yl)acetamide], the half-inhibitory concentration (IC50) came out at 1100 nM.

`O=C(Cc1ccc(N2CCC3(CC2)OCCO3)cc1)N[C@@H]1CCN(c2cncc(C(F)(F)F)c2)C1` [Example 101, (R)-2-(4-(1,4-dioxa-8-azaspiro[4.5]decan-8-yl)phenyl)-N-(1-(5-(trifluoromethyl)pyridin-3-yl)pyrrolidin-3-yl)acetamide]: the IC50 is 100 nM.

Take `O=C1CCN(c2ccc(CC(=O)N[C@@H]3CCN(c4cncc(C(F)(F)F)c4)C3)cc2)CC1` [Example 102, (R)-2-(4-(4-oxopiperidin-1-yl)phenyl)-N-(1-(5-(trifluoromethyl)pyridin-3-yl)pyrrolidin-3-yl)acetamide]: the IC50 was 150 nM.

As to `O=C(Cc1ccc(C2CC2)cc1)NC1(CO)CCN(c2cncc(C(F)(F)F)c2)C1` (stereo not shown) [Example 103, 2-(4-cyclopropylphenyl)-N-(3-(hydroxymethyl)-1-(5-(trifluoromethyl)pyridin-3-yl)pyrrolidin-3-yl)acetamide], the half-maximal inhibitory concentration (IC50) was found to be 140 nM.

As to `CC(=O)OCC1(NC(=O)Cc2ccc(C3CC3)cc2)CCN(c2cncc(C(F)(F)F)c2)C1` (stereo not shown) [Example 104, (3-(2-(4-cyclopropylphenyl)acetamido)-1-(5-(trifluoromethyl)pyridin-3-yl)pyrrolidin-3-yl)methyl acetate], the concentration for half-maximal inhibition (IC50) was 460 nM.

Regarding `COCC1(NC(=O)Cc2ccc(C3CC3)cc2)CCN(c2cncc(C(F)(F)F)c2)C1` (stereo not shown) [Example 105, 2-(4-cyclopropylphenyl)-N-(3-(methoxymethyl)-1-(5-(trifluoromethyl)pyridin-3-yl)pyrrolidin-3-yl)acetamide], the half-inhibitory concentration (IC50) was found to be 240 nM.

For the molecule `CC(C)c1ccc(CC(=O)NC2CCN(c3cncc(C(F)(F)F)c3)CC2)cc1` [Example 109, 2-(4-Isopropylphenyl)-N-(1-(5-(trifluoromethyl)pyridin-3-yl)piperidin-4-yl)acetamide], the IC50 stood at 240 nM.

As to `COc1ncc(N2CC[C@@H](NC(=O)Cc3ccc(C(C)C)cc3)C2)cc1C(F)(F)F` [Example 110, (R)-2-(4-isopropylphenyl)-N-(1-(6-methoxy-5-(trifluoromethyl)pyridin-3-yl)pyrrolidin-3-yl)acetamide], the IC50 was 290 nM.

On to `CC(C)c1ccc(CC(=O)N[C@@H]2CCN(c3ncc(C(F)(F)F)cn3)C2)cc1` [Example 111, (R)-2-(4-isopropylphenyl)-N-(1-(5-(trifluoromethyl)pyrimidin-2-yl)pyrrolidin-3-yl)acetamide], for which the half-inhibitory concentration (IC50) was found to be 9900 nM.

As to `CC(C)c1ccc(CC(=O)N[C@@H]2CCN(c3nc(C(F)(F)F)cs3)C2)cc1` [Example 112, (R)-2-(4-isopropylphenyl)-N-(1-(4-(trifluoromethyl)thiazol-2-yl)pyrrolidin-3-yl)acetamide], the half-maximal inhibitory concentration (IC50) is 110 nM.

In the case of `CC(C)c1ccc(CC(=O)N[C@@H]2CCN(c3ccc(C(F)(F)F)nc3)C2)cc1` [Example 113, (R)-2-(4-isopropylphenyl)-N-(1-(6-(trifluoromethyl)pyridin-3-yl)pyrrolidin-3-yl)acetamide], the IC50 is 100 nM.

As to `CC(C)c1ccc(CC(=O)N[C@H]2CCN(c3cncc(C(F)(F)F)c3)C2)cc1` [Example 114, (S)-2-(4-isopropylphenyl)-N-(1-(5-(trifluoromethyl)pyridin-3-yl)pyrrolidin-3-yl)acetamide], the IC50 turned out to be 1200 nM.

With `O=C(Cc1ccc(OC(F)(F)F)cc1)N[C@@H]1CCN(c2cncc(C(F)(F)F)c2)C1` [Example 115, (R)-2-(4-(trifluoromethoxy)phenyl)-N-(1-(5-(trifluoromethyl)pyridin-3-yl)pyrrolidin-3-yl)acetamide], the half-inhibitory concentration (IC50) is 91 nM.

Consider `O=C(Cc1ccc(OCC(F)(F)F)cc1)N[C@@H]1CCN(c2cncc(C(F)(F)F)c2)C1` [Example 116, (R)-2-(4-(2,2,2-trifluoroethoxy)phenyl)-N-(1-(5-(trifluoromethyl)pyridin-3-yl)pyrrolidin-3-yl)acetamide], for which the half-inhibitory concentration (IC50) was 40 nM.

Turning to `CC(C)c1ccc(CC(=O)NC2CN(c3cncc(C(F)(F)F)c3)C2)cc1` [Example 117, 2-(4-Isopropylphenyl)-N-(1-(5-(trifluoromethyl)pyridin-3-yl)azetidin-3-yl)acetamide], the 50% inhibitory concentration (IC50) was determined as 71 nM.

For the molecule `CC(C)c1ccc(CC(=O)NC2CN(c3ccc(C(F)(F)F)nc3)C2)cc1` [Example 118, 2-(4-Isopropylphenyl)-N-(1-(6-(trifluoromethyl)pyridin-3-yl)azetidin-3-yl)acetamide], the concentration for half-maximal inhibition (IC50) was determined as 2100 nM.

As to `O=C(Cc1cc(Cl)cc(Cl)c1)N[C@@H]1CCN(c2cncc(C(F)(F)F)c2)C1` [Example 119, (R)-2-(3,5-dichlorophenyl)-N-(1-(5-(trifluoromethyl)pyridin-3-yl)pyrrolidin-3-yl)acetamide], the IC50 is 2300 nM.

On to `O=C(Cc1cc(F)cc(Cl)c1)N[C@@H]1CCN(c2cncc(C(F)(F)F)c2)C1` [Example 120, (R)-2-(3-chloro-5-fluorophenyl)-N-(1-(5-(trifluoromethyl)pyridin-3-yl)pyrrolidin-3-yl)acetamide], for which the IC50 was 820 nM.

As for `O=C(Cc1ccc(C2CC2)cc1)N[C@@H]1CCN(c2ccc(C(F)(F)F)nc2)C1` [Example 121, (R)-2-(4-cyclopropylphenyl)-N-(1-(6-(trifluoromethyl)pyridin-3-yl)pyrrolidin-3-yl)acetamide], the IC50 came to 120 nM.

In the case of `CC(C)c1ccc(CC(=O)N[C@@H]2CCN(c3ccc(C(F)(F)F)s3)C2)cc1` [Example 122, (R)-2-(4-isopropylphenyl)-N-(1-(5-(trifluoromethyl)thiophen-2-yl)pyrrolidin-3-yl)acetamide], the IC50 came out at 1500 nM.

In the case of `O=C(Cc1ccc(C(F)(F)F)cc1)N[C@@H]1CCN(c2cncc(C(F)(F)F)c2)C1` [Example 123, (R)-2-(4-(trifluoromethyl)phenyl)-N-(1-(5-(trifluoromethyl)pyridin-3-yl)pyrrolidin-3-yl)acetamide], the IC50 worked out at 44 nM.

In the case of `O=C(Cc1ccc2cc[nH]c2c1)N[C@@H]1CCN(c2cncc(C(F)(F)F)c2)C1` [Example 124, (R)-2-(1H-indol-6-yl)-N-(1-(5-(trifluoromethyl)pyridin-3-yl)pyrrolidin-3-yl)acetamide], the 50% inhibitory concentration (IC50) came to 62 nM.

As for `O=C(Cc1ccc(C2CC2)cc1)N[C@@H]1CCN(c2cncc(OCC(F)(F)F)c2)C1` [Example 126, (R)-2-(4-cyclopropylphenyl)-N-(1-(5-(2,2,2-trifluoroethoxy)pyridin-3-yl)pyrrolidin-3-yl)acetamide], the IC50 came to 830 nM.

As to `O=C(Cc1ccc(C2CC2)cc1)N[C@@H]1CCN(c2cc(OCC(F)(F)F)ccn2)C1` [Example 127, (R)-2-(4-cyclopropylphenyl)-N-(1-(4-(2,2,2-trifluoroethoxy)pyridin-2-yl)pyrrolidin-3-yl)acetamide], the IC50 was 1100 nM.

`O=C(Cc1ccc(C2CC2)cc1)N[C@@H]1CCCN(c2cncc(C(F)(F)F)c2)C1` [Example 129, (R)-2-(4-cyclopropylphenyl)-N-(1-(5-(trifluoromethyl)pyridin-3-yl)piperidin-3-yl)acetamide]: the IC50 was 550 nM.

As for `CC(C)(O)c1ccc(CC(=O)N[C@@H]2CCN(c3cncc(C(F)(F)F)c3)C2)cc1` [Example 131, (R)-2-(4-(2-hydroxypropan-2-yl)phenyl)-N-(1-(5-(trifluoromethyl)pyridin-3-yl)pyrrolidin-3-yl)acetamide], the IC50 turned out to be 200 nM.

Regarding `Cc1nccnc1-c1ccc(CC(=O)N[C@@H]2CCN(c3cncc(C(F)(F)F)c3)C2)cc1` [Example 132, (R)-2-(4-(3-methylpyrazin-2-yl)phenyl)-N-(1-(5-(trifluoromethyl)pyridin-3-yl)pyrrolidin-3-yl)acetamide], the IC50 is 190 nM.

In the case of `Cc1ncoc1-c1ccc(CC(=O)N[C@@H]2CCN(c3cncc(C(F)(F)F)c3)C2)cc1` [Example 133, (R)-2-(4-(4-methyloxazol-5-yl)phenyl)-N-(1-(5-(trifluoromethyl)pyridin-3-yl)pyrrolidin-3-yl)acetamide], the IC50 stood at 55 nM.

With `O=C(Cc1ccc(C2CC2)cc1)N[C@@H]1CCN(c2cc(C(F)(F)F)c[n+]([O-])c2)C1` [Example 134A, (R)-3-(3-(2-(4-cyclopropylphenyl)acetamido)pyrrolidin-1-yl)-5-(trifluoromethyl)pyridine 1-oxide], the half-inhibitory concentration (IC50) came out at 930 nM.

Take `O=C(Cc1ccc(C2CC2)cc1)N[C@@H]1CC[N+]([O-])(c2cncc(C(F)(F)F)c2)C1` (stereo partly drawn) [Example 134B, (3R)-3-(2-(4-cyclopropylphenyl)acetamido)-1-(5-(trifluoromethyl)pyridin-3-yl)pyrrolidine 1-oxide]: the IC50 was found to be 1000 nM.

For `CC(C)(C(=O)N[C@@H]1CCN(c2cncc(C(F)(F)F)c2)C1)c1ccc(C2CC2)cc1` [Example 135, (R)-2-(4-cyclopropylphenyl)-2-methyl-N-(1-(5-(trifluoromethyl)pyridin-3-yl)pyrrolidin-3-yl)propanamide], the IC50 came to 230 nM.

In the case of `O=C(Cc1ccc(C2CC2)cc1)N[C@@H]1CCN(c2cc(F)cc(C(F)(F)F)c2)C1` [Example 136, (R)-2-(4-cyclopropylphenyl)-N-(1-(3-fluoro-5-(trifluoromethyl)phenyl)pyrrolidin-3-yl)acetamide], the IC50 came out at 1500 nM.
